{
  "source": "patent US7851640B2",
  "about": "“Catalytic enantioselective synthesis of flavanones and chromanones” (Northwestern University, priority 2008, dated 2010)",
  "origin": "cited, not measured here",
  "system": "MMP-2",
  "settings": "PCa cells treated with genistein",
  "data": [
    {"smiles": "O=c1c(-c2ccc(O)cc2)coc2cc(O)cc(O)c12", "note": "[genistein]", "values": [
      {"measurement": "levels of MMP-2 gene transcript and protein", "value": "decreased levels of both MMP-2 gene transcript and protein"}
    ]}
  ]
}
